Test results taken from ChEMBL document CHEMBL1201862, “PubChem BioAssay data set” (2004).
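Where inhibition never reached the appropriate level, the endpoint shown equals the highest concentration tested. Otherwise, values were interpolated linearly from a five-concentration, 48-hour dose response in 96-well plates. Abbreviation: GI50, concentration required for 50% inhibition of growth.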 Active and inactive are the calls of the source. No stated cut-off is given here; in the data, active = GI50 up to about 1.1 µM and inactive = higher.

What was measured:
Assay in all cases: NCI tumour cell line growth inhibition, 48 h
MOLT-4 = tested on: MOLT-4
HOP-92 = tested on: HOP-92
SF-295 = tested on: SF-295
DMS-273 = tested on: DMS-273
DLD-1 = tested on: DLD-1
SNB-19 = tested on: SNB-19
OVCAR-3 = tested on: OVCAR-3
U-251 = tested on: U-251
HCC 2998 = tested on: HCC 2998
SN12C = tested on: SN12C
HOP-62 = tested on: HOP-62
A549 = tested on: A549
HCT-15 = tested on: HCT-15
SK-MEL-2 = tested on: SK-MEL-2
NCI/ADR-RES = tested on: NCI/ADR-RES
XF498 = tested on: XF498
DMS-114 = tested on: DMS-114
OVCAR-8 = tested on: OVCAR-8
HT-29 = tested on: HT-29
SNB-75 = tested on: SNB-75
K562 = tested on: K562
KM12 = tested on: KM12
EKVX = tested on: EKVX
SK-MEL-5 = tested on: SK-MEL-5
COLO 205 = tested on: COLO 205
SF-539 = tested on: SF-539
SK-OV-3 = tested on: SK-OV-3
RPMI-8226 = tested on: RPMI-8226
M19-MEL = tested on: M19-MEL
NCI-H23 = tested on: NCI-H23
UACC-257 = tested on: UACC-257
IGROV-1 = tested on: IGROV-1
Malme-3M = tested on: Malme-3M
MCF7 = tested on: MCF7
NCI-H460 = tested on: NCI-H460
UACC-62 = tested on: UACC-62
KM-20L2 = tested on: KM-20L2
NCI-H226 = tested on: NCI-H226
SF-268 = tested on: SF-268
NCI-H522 = tested on: NCI-H522
CCRF-CEM = tested on: CCRF-CEM
SNB-78 = tested on: SNB-78
HOP-18 = tested on: HOP-18
SW-620 = tested on: SW-620
OVCAR-5 = tested on: OVCAR-5
OVCAR-4 = tested on: OVCAR-4
LOX IMVI = tested on: LOX IMVI
SK-MEL-28 = tested on: SK-MEL-28
UO-31 = tested on: UO-31
RXF 393 = tested on: RXF 393
HCT-116 = tested on: HCT-116
HL-60 = tested on: HL-60
A498 = tested on: A498
PC-3 = tested on: PC-3
BT-549 = tested on: BT-549
MDA-MB-435 = tested on: MDA-MB-435
DU-145 = tested on: DU-145
ACHN = tested on: ACHN
T47D = tested on: T47D
M14 = tested on: M14
Hs-578T = tested on: Hs-578T
786-0 = tested on: 786-0
LXFL 529 = tested on: LXFL 529
MDA-MB-231 = tested on: MDA-MB-231
TK-10 = tested on: TK-10
MDA-N = tested on: MDA-N
SR = tested on: SR

Measured: GI50

c1ccc2c(c1)SP1Sc3ccccc3P21 (stereo not drawn)
inactive: MOLT-4 > 100 µM | HOP-92 > 100 µM | SF-295 > 100 µM | DMS-273 > 100 µM | DLD-1 > 92.5 µM | SNB-19 > 28.2 µM | OVCAR-3 > 100 µM | U-251 > 100 µM | HCC 2998 90.6 µM | SN12C 63.4 µM | HOP-62 > 100 µM | A549 > 100 µM | SK-MEL-2 > 80.7 µM | NCI/ADR-RES > 100 µM | XF498 > 100 µM | DMS-114 > 79.3 µM | OVCAR-8 > 89.3 µM | HT-29 74.6 µM | SNB-75 61.9 µM | K562 > 87.3 µM | KM12 > 100 µM | EKVX > 100 µM | SK-MEL-5 > 100 µM | COLO 205 > 100 µM | SF-539 > 100 µM | SK-OV-3 > 100 µM | RPMI-8226 59.6 µM | M19-MEL > 100 µM | NCI-H23 > 100 µM | UACC-257 > 100 µM | IGROV-1 > 100 µM | Malme-3M > 100 µM | MCF7 > 100 µM | NCI-H460 > 100 µM | UACC-62 > 85.1 µM | KM-20L2 > 78 µM | NCI-H226 > 45.7 µM | SF-268 > 95.3 µM | NCI-H522 39.6 µM | CCRF-CEM > 87.1 µM | SNB-78 > 100 µM | HOP-18 18.1 µM | SW-620 > 100 µM | OVCAR-5 > 100 µM | OVCAR-4 72.3 µM | LOX IMVI > 83.6 µM | SK-MEL-28 > 90.4 µM | UO-31 68.1 µM | RXF 393 52.7 µM | HCT-116 > 80 µM | HL-60 > 72.8 µM | A498 > 100 µM
> 100 µM: HCT-15

COc1ccc(NC(=O)CSc2nnc(-c3ccc(/N=C\c4ccc(Cl)cc4)cc3)o2)cc1
4.78 µM: HCT-15
inactive: PC-3 22 µM | MOLT-4 13.9 µM | HOP-92 14.4 µM | BT-549 17 µM | SF-295 48.5 µM | MDA-MB-435 34 µM | DU-145 34.5 µM | ACHN > 52.4 µM | DMS-273 26.8 µM | SNB-19 29.9 µM | OVCAR-3 21.4 µM | U-251 24.8 µM | T47D 21.2 µM | HCC 2998 52.8 µM | SN12C 16.1 µM | HOP-62 24.8 µM | A549 > 100 µM | SK-MEL-2 15 µM | NCI/ADR-RES 42.3 µM | XF498 17.1 µM | DMS-114 15.2 µM | OVCAR-8 35.9 µM | HT-29 42.8 µM | SNB-75 31.6 µM | K562 11 µM | M14 26.5 µM | KM12 29.9 µM | EKVX > 59.2 µM | Hs-578T 77.6 µM | SK-MEL-5 27.3 µM | COLO 205 20 µM | 786-0 37.8 µM | SK-OV-3 51.8 µM | RPMI-8226 9.06 µM | M19-MEL 15 µM | NCI-H23 36 µM | UACC-257 46.5 µM | IGROV-1 39.5 µM | Malme-3M 34 µM | MCF7 23.2 µM | NCI-H460 > 67.3 µM | UACC-62 28.8 µM | KM-20L2 39.6 µM | NCI-H226 > 44.6 µM | SF-268 13.6 µM | NCI-H522 26.7 µM | CCRF-CEM 8.22 µM | SNB-78 24.9 µM | LXFL 529 16.5 µM | MDA-MB-231 34.5 µM | HOP-18 12.5 µM | SW-620 22.1 µM | OVCAR-5 > 100 µM | TK-10 > 100 µM | MDA-N 39.6 µM | OVCAR-4 23.5 µM | LOX IMVI 7.98 µM | SK-MEL-28 > 45.1 µM | UO-31 > 54.7 µM | RXF 393 > 69.7 µM | HCT-116 14.2 µM | HL-60 4.85 µM | A498 > 100 µM | SR 13.3 µM
